≈ marks a conversion by molar mass, not a printed value. Blank lines part the entries; values can stand above or below the compound they belong to.
Tests used:
Assay in all cases: ≥ marks a high value that may be exact or a test limit, other limits are often not marked, values filed in µg/mL are converted to µM
[1] = tested on: Acinetobacter baumannii LMG 01041
[2] = tested on: Klebsiella aerogenes LMG 02094
[3] = tested on: Klebsiella pneumoniae LMG 20218
[4] = tested on: Pseudomonas aeruginosa LMG 6395
[5] = tested on: Escherichia coli LMG 15862
[6] = tested on: Klebsiella pneumoniae ATCC 43816
[7] = tested on: Pseudomonas aeruginosa ATCC 27853
[8] = tested on: Staphylococcus aureus ATCC 12493
[9] = tested on: Staphylococcus aureus ATCC 6538
[10] = tested on: Candida albicans NCYC 1467
[11] = tested on: Escherichia coli ATCC 8739
[12] = tested on: Escherichia coli ATCC BAA-2340
[13] = tested on: Staphylococcus aureus NCTC 10788
[14] = tested on: Pseudomonas aeruginosa ATCC 9027
Pseudomonas aeruginosa = tested on: Pseudomonas aeruginosa
[15] = tested on: Escherichia coli NCTC 10418
[16] = tested on: Klebsiella pneumoniae ATCC BAA-2342
[17] = tested on: Enterococcus faecalis NCTC 12697
[18] = tested on: Klebsiella pneumoniae ATCC BAA-1705
Staphylococcus aureus = tested on: Staphylococcus aureus
[19] = tested on: Candida albicans ATCC 10231
[20] = tested on: Staphylococcus aureus ATCC 29231
[21] = tested on: Klebsiella pneumoniae WGLW2
[22] = tested on: Pseudomonas aeruginosa PA14
Vibrio anguillarum = tested on: Vibrio anguillarum
[23] = tested on: Pseudomonas aeruginosa Z61
[24] = tested on: Staphylococcus epidermidis C621
[25] = tested on: Pseudomonas aeruginosa K799
Aeromonas salmonicida = tested on: Aeromonas salmonicida
[26] = tested on: Salmonella enterica serovar typhimurium MS7953s
[27] = tested on: Salmonella enterica subsp. enterica serovar Typhimurium ATCC 14028s
[28] = tested on: Staphylococcus aureus NCTC 12981
Candida albicans = tested on: Candida albicans
Aspergillus niger = tested on: Aspergillus niger
Pachysolen tannophilus = tested on: Pachysolen tannophilus
Kluyveromyces marxianus = tested on: Kluyveromyces marxianus
Fusarium oxysporum = tested on: Fusarium oxysporum
Trichoderma harzianum = tested on: Trichoderma harzianum
Escherichia coli TOP 10 = tested on: Escherichia coli TOP 10
[29] = tested on: Mannheimia haemolytica 82-25

Structure (SMILES): CC[C@H](C)[C@H](NC(=O)[C@H](CCCCN)NC(=O)[C@H](CCCCN)NC(=O)[C@@H](N)CC(C)C)C(=O)NCC(=O)N[C@@H](CCCCN)C(=O)N[C@@H](CCCCN)C(=O)N[C@H](C(=O)N[C@@H](Cc1c[nH]c2ccccc12)C(=O)N[C@@H](CCCN=C(N)N)C(=O)N[C@H](C(=O)NCC(=O)N[C@@H](Cc1c[nH]c2ccccc12)C(=O)N[C@@H](CC(N)=O)C(=O)N[C@H](C(=O)N[C@@H](CCCN=C(N)N)C(=O)N[C@@H](CC(=O)O)C(=O)N[C@@H](C)C(=O)N[C@H](C(=O)N[C@H](C(=O)N[C@@H](CCC(N)=O)C(=O)O)[C@@H](C)CC)[C@@H](C)O)[C@@H](C)O)C(C)C)[C@@H](C)CC [LKKIGKKIWRVGWNTRDATIQ]
MIC [19]: > 51 µM
MIC [20]: ≥ 51 µM
MIC [21]: ≥ 51 µM
MIC [22]: ≥ 51 µM

Structure (SMILES): NC(=O)[C@H](CCCN=C(N)N)NC(=O)[C@@H]1CCCN1C(=O)[C@@H]1CCCN1C(=O)[C@H](Cc1c[nH]c2ccccc12)NC(=O)[C@@H]1CCCN1C(=O)[C@@H](N)CCCN=C(N)N [RPWPPR]
MIC [28]: ≥ 158 µM
MIC [15]: ≥ 158 µM

Structure (SMILES): CC[C@H](C)[C@H](NC(=O)[C@H](CC(C)C)NC(=O)[C@@H](NC(=O)[C@@H](N)CC(=O)O)[C@@H](C)O)C(=O)NCC(=O)N[C@@H](CO)C(=O)N[C@H]1CSSC[C@@H]2NC(=O)[C@H](Cc3cnc[nH]3)NC(=O)CNC(=O)CNC(=O)[C@H](CCCCN)NC(=O)[C@H](Cc3ccc(O)cc3)NC(=O)CNC(=O)[C@H](CCCN=C(N)N)NC(=O)[C@H](CCCN=C(N)N)NC(=O)[C@H](CCCCN)NC(=O)[C@@H]3CSSC[C@@H](C(=O)N[C@@H](CCC(=O)O)C(=O)O)NC(=O)[C@H](Cc4c[nH]c5ccccc45)NC(=O)[C@H](CSSC[C@H](NC(=O)[C@H](CC(=O)O)NC(=O)[C@H](CO)NC(=O)[C@H]([C@@H](C)O)NC(=O)[C@H](Cc4ccc(O)cc4)NC(=O)[C@H](CC(N)=O)NC(=O)[C@H]([C@@H](C)O)NC(=O)[C@H](C)NC(=O)CNC(=O)[C@H](Cc4c[nH]c5ccccc45)NC(=O)[C@H](C(C)C)NC1=O)C(=O)N[C@@H](CC(N)=O)C(=O)N[C@@H](C)C(=O)N[C@@H](CCC(=O)O)C(=O)N3)NC(=O)[C@H](CC(N)=O)NC(=O)[C@H](C(C)C)NC(=O)[C@H](CC(N)=O)NC(=O)[C@H](CC(C)C)NC(=O)[C@H](Cc1ccccc1)NC(=O)[C@H](CO)NC(=O)CNC2=O [DTLIGSCVWGATNYTSDCNAECKRRGYKGGHCGSFLNVNCWCE]
MIC (Candida albicans): 8.5 µM (≈ 40.1 µg/mL)
MIC (Aspergillus niger): 2.1 µM (≈ 9.9 µg/mL)
MIC (Pachysolen tannophilus): 8.5 µM (≈ 40.1 µg/mL)
MIC (Kluyveromyces marxianus): 8.5 µM (≈ 40.1 µg/mL)
MIC (Fusarium oxysporum): 16.9 µM (≈ 79.7 µg/mL)
MIC (Trichoderma harzianum): 4.2 µM (≈ 19.8 µg/mL)

Structure (SMILES): NCCCC[C@H](NC(=O)[C@H](CC(=O)O)NC(=O)[C@H](CC(=O)O)NC(=O)[C@H](CC(=O)O)NC(=O)CN)C(=O)O [GDDDK]
MIC [29]: ≥ 200 µM

Continued, values first:

MIC [1]: ≥ 128 µM
MIC [2]: ≥ 256 µM
MIC [3]: ≥ 32 µM
MIC [4]: 16 µM (≈ 23.5 µg/mL)
MIC [5]: 16 µM (≈ 23.5 µg/mL)
Structure (SMILES): CC[C@H](C)[C@H](NC(=O)[C@H](CCCN=C(N)N)NC(=O)[C@H](CCC(N)=O)NC(=O)[C@@H](NC(=O)[C@@H](NC(=O)[C@@H](N)CCCCN)[C@@H](C)CC)C(C)C)C(=O)N[C@@H](CCCCN)C(=O)N[C@@H](CCCCN)C(=O)N[C@@H](Cc1c[nH]c2ccccc12)C(=O)N[C@@H](CC(C)C)C(=O)N[C@@H](CCCN=C(N)N)C(N)=O [KIVQRIKKWLR]

MIC [6]: ≥ 64 µM
MIC [7]: 128 µM (≈ 248 µg/mL)
MIC [8]: 4 µM (≈ 7.75 µg/mL)
MIC [9]: 2 µM (≈ 3.87 µg/mL)
MIC [10]: 8 µM (≈ 15.5 µg/mL)
MIC [11]: ≥ 128 µM
MIC [12]: ≥ 64 µM
MIC [13]: 4 µM (≈ 7.75 µg/mL)
MIC [14]: 256 µM (≈ 496 µg/mL)
MIC (Pseudomonas aeruginosa): > 512 µM
MIC [15]: ≥ 32 µM
MIC [16]: ≥ 128 µM
MIC [17]: ≥ 32 µM
MIC [18]: ≥ 256 µM
MIC (Staphylococcus aureus): 8 µM (≈ 15.5 µg/mL)
Structure (SMILES): CC[C@H](C)[C@H](NC(=O)CNC(=O)CNC(=O)[C@H](C)NC(=O)[C@@H](NC(=O)[C@H](CCCCN)NC(=O)[C@@H]1CCCN1C(=O)[C@@H](NC(=O)[C@H](CC(C)C)NC(=O)[C@H](CO)NC(=O)[C@H](CC(C)C)NC(=O)[C@@H](N)Cc1ccccc1)[C@@H](C)CC)[C@@H](C)CC)C(=O)N[C@@H](C)C(=O)N[C@@H](C)C(=O)N[C@@H](CC(C)C)C(=O)N[C@H](C(=O)N[C@@H](CCCCN)C(=O)N[C@@H](CC(N)=O)C(=O)N[C@@H](CC(C)C)C(N)=O)C(C)C [FLSLIPKIAGGIAALVKNL]

MIC (Vibrio anguillarum): 10.4 µM (≈ 32 µg/mL)
MIC [23]: 5.22 µM (≈ 16 µg/mL)
MIC [24]: 5.22 µM (≈ 16 µg/mL)
MIC [25]: 5.22 µM (≈ 16 µg/mL)
MIC (Aeromonas salmonicida): 0.326 µM (≈ 1 µg/mL)
MIC [26]: 0.163 µM (≈ 0.5 µg/mL)
MIC [27]: 5.22 µM (≈ 16 µg/mL)
Structure (SMILES): CC(C)C[C@H](NC(=O)[C@H](C)NC(=O)[C@H](C)NC(=O)[C@H](CCCCN)NC(=O)CNC(=O)[C@@H](NC(=O)[C@H](Cc1cnc[nH]1)NC(=O)[C@H](CCCCN)NC(=O)CNC(=O)[C@@H](NC(=O)[C@H](Cc1cnc[nH]1)NC(=O)[C@H](C)NC(=O)[C@H](C)NC(=O)[C@H](CCCCN)NC(=O)[C@H](CCCCN)NC(=O)[C@H](Cc1ccccc1)NC(=O)[C@H](Cc1ccccc1)NC(=O)[C@H](CO)NC(=O)CNC(=O)[C@H](Cc1c[nH]c2ccccc12)NC(=O)CN)C(C)C)C(C)C)C(=O)NCC(=O)N[C@@H](C)C(=O)N[C@@H](C)C(=O)N[C@@H](C)C(=O)N[C@@H](CCCN=C(N)N)C(=O)N[C@@H](CCCN=C(N)N)C(=O)N[C@@H](CCCN=C(N)N)C(=O)N[C@@H](CCCCN)C(=O)O [GWGSFFKKAAHVGKHVGKAALGAAARRRK]

MIC (Escherichia coli TOP 10): ≥ 71.1 µM
Structure (SMILES): CC[C@H](C)[C@H](NC(=O)[C@@H](N)CCC(=O)O)C(=O)N[C@@H](CCC(=O)O)C(=O)N[C@@H](Cc1ccc(O)cc1)C(=O)NCC(=O)N[C@@H](CC(N)=O)C(=O)N1CCC[C@H]1C(=O)NCC(=O)N[C@H](C(=O)NCC(=O)N[C@H](C(=O)N[C@@H](CC(=O)O)C(=O)N[C@@H](CCCN=C(N)N)C(N)=O)[C@@H](C)O)C(C)C [EIEYGNPGVGTDR]

Reference: DBAASP
